From US12577213B2 (NINGBO COMBIREG PHARMACEUTICAL TECHNOLOGY CO., LTD., priority 2020, dated 2026)
Like-named read-outs stand apart in the source and are kept apart here.

Assays:
LOX-IMVI (melanoma) = assay: NCI method SRB growth inhibition, LOX-IMVI; format: cell-based; settings: Homo sapiens, treated 48 hours, SRB stain
Description: (§1) In this embodiment, the method of National Cancer Institute (NCI) was used to evaluate the anti-tumor activity of the embodiment compounds in the present disclosure. Nine representative cell lines were selected for activity evaluation, including A549 (non-small cell lung cancer), HCT116 (colon cancer), SF295 (central nervous system tumor), LOX-IMVI (melanoma), 786-0 (renal cancer), K562 (leukemia), PC-3 (prostate cancer), OVCAR-3 (ovarian cancer) and HS 578T (breast cancer).
(§2) The specific method was as follows: 60 tumor cell lines of 9 kinds of human cancers were used to evaluate the inhibitory activity of the compound in vitro. A test group, a parallel control group and a vehicle control group were set up. The parallel control group was fixed immediately before the compound was added; the cells in the test group were fixed after being treated with the compound for 48 hours; the vehicle control group was fixed after an equal volume of complete medium was added for 48 hours. Sulforhodamine B (SRB) was used to stain, and the OD value was measured at a wavelength of 515 nm. The specific calculation method was as follows: the OD value of the parallel control group was recorded as Tz, the OD value of the vehicle control group was recorded as C, and the OD value of the test group was recorded as (Ti). If Ti≥Tz, it means that the cells still grow after the drug was added, and the growth rate %=[(Ti−Tz)/(C−Tz)]×100; if Ti<Tz, it means that the cells are killed after the drug was added, and the growth rate %=[(Ti−Tz)/Tz]×100. Three parameters were used to evaluate the anti-tumor activity of compounds in this method: 50% growth inhibitory concentration (GI50): i.e. the compound concentration at [(Ti−Tz)/(C−Tz)]×100=50; complete growth inhibitory concentration (TGI): the compound concentration at Ti=Tz; the drug concentration required to kill 50% of the cells (LC50): i.e. the compound concentration at [(Ti−Tz)/Tz]×100=−50.
(§3) The inhibitory activities of the embodiment compounds on nine representative tumor cell lines were listed in detail in Table 1. Wherein, the GI50 value means “50% growth inhibition rate”, that is, the concentration of the compound to be tested when it can inhibit […] of cell growth; “ND” means not detected.

PC-3 (prostate cancer) = assay: NCI method SRB growth inhibition, PC-3; format: cell-based; settings: Homo sapiens; PC-3, treated 48 hours, SRB stain
Description: as §1, §2, §3

786-0 (renal cancer) = assay: NCI method SRB growth inhibition, 786-0; format: cell-based; settings: Homo sapiens; 786-0, treated 48 hours, SRB stain
Description: as §1, §2, §3

OVCAR-3 (ovarian cancer) = assay: NCI method SRB growth inhibition, OVCAR-3; format: cell-based; settings: Homo sapiens; OVCAR-3, treated 48 hours, SRB stain
Description: as §1, §2, §3

K562 (leukemia) = assay: NCI method SRB growth inhibition, K562; format: cell-based; settings: Homo sapiens; K562, treated 48 hours, SRB stain
Description: as §1, §2, §3

[1] = tested on: A549 (non-small cell lung cancer); assay: NCI method SRB growth inhibition, A549; format: cell-based; settings: Homo sapiens; A549, treated 48 hours, SRB stain
Description: as §1, §2, §3

[2] = tested on: SF295 (central nervous system tumor); assay: NCI method SRB growth inhibition, SF295; format: cell-based; settings: Homo sapiens, SF-295; SF295, treated 48 hours, SRB stain
Description: as §1, §2, §3

HCT116 (colon cancer) = assay: NCI method SRB growth inhibition, HCT116; format: cell-based; settings: Homo sapiens, HCT-116; HCT116, treated 48 hours, SRB stain
Description: as §1, §2, §3

HS 578T (breast cancer) = assay: NCI method SRB growth inhibition, HS 578T; format: cell-based; settings: Homo sapiens, HS578T, treated 48 hours, SRB stain
Description: as §1, §2, §3

[3] = Liver microsomes stability; format: in vitro ADME, human; settings: 1 μM compound, 1 mg/mL human liver microsomes, 1 mM NADPH; for half-life at 1 μM: read-out: T½ of HLM
Procedure: The compound to be tested with final concentration of 1 μM was incubated with 1 mg/mL of human liver microsomes and 1 mM of NADPH, and a group without NADPH was set as a negative control. The reaction mixture was quenched with methanol at five time points of 0, 5, 15, 30 and 60 min, respectively, then centrifuged at 2500 rpm for 20 min to precipitate proteins, and the resulting supernatant was analyzed by LC-MS/MS. The data was analyzed and the k value and half-life T1/2 was calculated, T1/2(min)=0.693/k.
Wherein, compounds a, b and c are active compounds disclosed in patent No. ZL201610154581.3.

Row | Structure (SMILES) | GI50 (LOX-IMVI (melanoma)) [nM] | GI50 (PC-3 (prostate cancer)) [nM] | GI50 (786-0 (renal cancer)) [nM] | GI50 (OVCAR-3 (ovarian cancer)) [nM] | GI50 (K562 (leukemia)) [nM] | GI50 [1] [nM] | GI50 [2] [nM] | GI50 (HCT116 (colon cancer)) [nM] | GI50 (HS 578T (breast cancer)) [nM] | microsomal CLint at 1 μM [3] [µL/min/mg] | half-life at 1 μM ([3]; human, human liver microsomes) [min] | half-life at 1 μM [3] [min] | microsomal CLint at 1 μM ([3]; human, human liver microsomes) [µL/min/mg]
1 | [2H]C([2H])([2H])N1C(=O)c2cc(Oc3cc(C)cc(C)c3)c(NC(=O)c3cc(OC)c(OC)c(OC)c3Cl)cc2NC(=O)[C@@H]1CC(=O)N(C([2H])([2H])C([2H])([2H])[2H])C([2H])([2H])C([2H])([2H])[2H] [Compound 19, (S)-2-chloro-N-[3-[2-[bis(pentadeuteroethyl)amino]-2-oxoethyl]-7-(3,5-dimethylphenoxy)-4-(trideuteromethyl)-2,5-dioxo-2,3,4,5-tetrahydro-1H-benzo[e][1,4]diazepin-8-yl]-3,4,5-trimethoxybenzamide] | < 5 | < 5 | 19.7 | 6.2 | < 5 | 5.9 | 11.8 | 5 | 80.7 | 21.1 | 32.9 | – | –
2 | [2H]C([2H])([2H])c1cc(Oc2cc3c(cc2NC(=O)c2cc(OC)c(OC)c(OC)c2Cl)NC(=O)[C@H](CC(=O)N(CC)CC)NC3=O)cc(C([2H])([2H])[2H])c1 [Compound 23, (S)-2-chloro-N-[3-[2-(diethylamino)-2-oxoethyl]-7-[3,5-bis(trideuteromethyl)phenoxy]-2,5-dioxo-2,3,4,5-tetrahydro-1H-benzo[e][1,4]diazepin-8-yl]-3,4,5-trimethoxybenzamide] | < 5 | 6.1 | 67.5 | 6.6 | < 5 | 11.6 | 10.5 | < 5 | 24.9 | 26.9 | 25.8 | – | –
3 | [2H]c1c(C)c([2H])c(Oc2cc3c(cc2NC(=O)c2cc(OC)c(OC)c(OC)c2Cl)NC(=O)[C@H](CC(=O)N(CC)CC)NC3=O)c([2H])c1C [Compound 24, (S)-2-chloro-N-[3-[2-(diethylamino)-2-oxoethyl]-7-(3,5-dimethyl-2,4,6-trideuterophenoxy)-2,5-dioxo-2,3,4,5-tetrahydro-1H-benzo[e][1,4]diazepin-8-yl]-3,4,5-trimethoxybenzamide] | 65.8 | 39.5 | 276 | 87.6 | 25.5 | 207 | 135 | 123 | 188 | 28.4 | 24.4 | – | –
4 | [2H]c1c(Oc2cc3c(cc2NC(=O)c2cc(OC)c(OC)c(OC)c2Cl)NC(=O)[C@H](CC(=O)N(CC)CC)NC3=O)c([2H])c(C([2H])([2H])[2H])c([2H])c1C([2H])([2H])[2H] [Compound 25, (S)-2-chloro-N-[3-[2-(diethylamino)-2-oxoethyl]-7-[3,5-bis(trideuteromethyl)-2,4,6-trideuterophenoxy]-2,5-dioxo-2,3,4,5-tetrahydro-1H-benzo[e][1,4]diazepin-8-yl]-3,4,5-trimethoxybenzamide] | < 5 | 5 | 15.8 | 8.3 | < 5 | 19.1 | 14.2 | < 5 | 30.3 | 29.8 | 23.3 | – | –
5 | [2H]C([2H])([2H])Oc1cc(C(=O)Nc2cc3c(cc2Oc2cc(C)cc(C)c2)C(=O)N[C@@H](CC(=O)C(C)(C)P(=O)(OC)OC)C(=O)N3)c(Br)c(OC([2H])([2H])[2H])c1OC([2H])([2H])[2H] [Compound 26, (S)-dimethyl-(4-8-(2-bromo-3,4,5-tris(trideuteromethoxy)benzoyl)-7-(3,5-dimethylphenoxy)-2,5-dioxo-2,3,4,5-tetrahydro-1H-benzo[e][1,4]diazepin-3-yl)-2-methyl-3-oxobutyl-2-yl)dimethyl phosphate] | 6.2 | < 5 | 57.4 | 6 | < 5 | 13 | 42.7 | 14.2 | 10 | – | – | 217 | 3.2
6 | [2H]C([2H])([2H])Oc1cc(C(=O)Nc2cc3c(cc2Oc2cc(C)cc(C)c2)C(=O)N(C)[C@@H](CC(=O)N2CCN(C)CC2)C(=O)N3)c(Br)c(OC([2H])([2H])[2H])c1OC([2H])([2H])[2H] [Compound 28] | < 5 | < 5 | 66 | < 5 | < 5 | < 5 | 18 | < 5 | < 5 | – | – | 41.8 | 16.8
7 | [2H]C([2H])([2H])Oc1cc(C(=O)Nc2cc3c(cc2Oc2cc(C)cc(C)c2)C(=O)N[C@@H](CC(=O)N2CCN(C)CC2)C(=O)N3)c(Br)c(OC([2H])([2H])[2H])c1OC([2H])([2H])[2H] [Compound 29, (S)-2-bromo-N-[7-(3,5-dimethylphenoxy)-3-[2-(4-methylpiperazin-1-yl)-2-oxoethyl]-2,5-dioxo-2,3,4,5-tetrahydro-1H-benzo[e][1,4]diazepin-8-yl]-3,4,5-tris(trideuteromethoxy)benzamide] | < 5 | < 5 | 244 | < 5 | 4.2 | 11.8 | 93.8 | 12 | < 5 | 5.4 | 128 | – | –
8 | [2H]C([2H])([2H])Oc1cc(C(=O)Nc2cc3c(cc2Oc2cc(C)cc(C)c2)C(=O)N[C@@H](CC(=O)N(C)OC)C(=O)N3)c(Br)c(OC([2H])([2H])[2H])c1OC([2H])([2H])[2H] [Compound 30] | < 5 | < 5 | 8.6 | < 5 | 1.6 | 4.9 | 11.6 | 7.8 | < 5 | 4.3 | 161 | – | –
9 | [2H]C([2H])([2H])Oc1cc(C(=O)Nc2cc3c(cc2Oc2cc(C)cc(C)c2)C(=O)N[C@@H](CC(=O)N(C)O)C(=O)N3)c(Br)c(OC([2H])([2H])[2H])c1OC([2H])([2H])[2H] [Compound 31] | < 5 | < 5 | 28.1 | < 5 | < 5 | < 5 | 58 | 17 | 8.6 | – | – | 43.3 | 16
10 | [2H]C([2H])([2H])Oc1cc(C(=O)Nc2cc3c(cc2Oc2cc(C)cc(C)c2)C(=O)N(C)[C@@H](CC(=O)N(C)OC)C(=O)N3)c(Br)c(OC([2H])([2H])[2H])c1OC([2H])([2H])[2H] [Compound 32] | < 5 | < 5 | < 5 | < 5 | < 5 | < 5 | 5 | < 5 | < 5 | – | – | 24.7 | 28.1
